Measurements published in patent US8486962B2, “Antifungal agents” (F2G Ltd., priority 2005, dated 2013).
≈ marks a conversion by molar mass, not a printed value.

What was measured:
Format in all cases: cell-based
[1] = tested on: Aspergillus fumigatus AF210; experiment: MIC, YAG medium, Aspergillus fumigatus AF210; details: YAG medium; for MIC: Aspergillus fumigatus, AF210, read-out: MIC A Fum. 210
Experimental: (§1) Measurement of Minimum Inhibitory Concentrations (MICs)
(§2) Between 1 and 5 mgs of compound were accurately weighed out into a sterile Eppendorf tube. The compound was dissolved in DMSO to give a solution containing 5 mg/ml. Tubes were stored at −20° C. until required.
(§3) On the day of testing thawed solutions were vortex mixed to ensure homogeneity. 30 μl of solution was removed and added to 570 μl of sterile water in a separate sterile Eppendorf. The thoroughly mixed solution was used to prepare a series of doubling dilutions in water, in a deep well plate. Eleven replicate plates were prepared using a Minitrak by aspirating 20 μl from each well into eleven clear polystyrene 96 well plates.
(§4) Spores of Aspergillus spp (Aspergillus fumigatus, Aspergillus terreus, Aspergillus niger and Aspergillus flavus) were harvested from cultures grown on Sabarauds agar for 5 days, and resuspended in PBS/Tween 80 to approx 1×10^7 cfu/ml Other filamentous fungi (Fusarium solani, Scedosporium spp., Trichophyton spp., Absidia corymbifera), were grown on Sabarauds agar for 2-10 days and spores/hyphae resuspended in PBS/Tween to give approx 1×10^7 cfU/ml. Candida species (Candida albicans, Candida glabrata, Candida krusei, Candida parapsilosis and Candida tropicalis) were grown on Sabarauds agar, cells were harvested from the agar using a sterile loop and resuspended in PBS/Tween 80 to approx 1×10^6 cfu/ml. Each organism suspension was diluted in RPMI medium, containing 2% glucose and 0.135M MOPS buffer (pH7.0) to 2×10^4 cfu/ml for Aspergillus spp and other filamentous fungi and 2×10^3 cfu/ml for yeast. 80 μl of an organism suspension was added to each well of the plate containing drug dilutions.
(§5) This produced MIC plates with a drug range 50-0.05 mg/L and organism inocula of 1-2×10^4 cfu/ml for Aspergillus spp and other filamentous fungi and 1-2×10^3 cfu/ml for yeasts. All plates were incubated for 24-48 hrs at 35° C. Growth was assessed by monitoring the optical density at 485 nm for each well. The MIC of a compound is the lowest drug concentration that inhibits growth of an organism by >80% compared with a drug free control. MICs are recorded as mg/L. Other growth media can be used for susceptibility testing, and the activity of the described compounds can also be assessed in a medium comprising, 1% glucose, 1% ammonium chloride and 0.5% yeast extract (YAG medium). To perform MIC tests in this medium, dilutions of compounds are prepared in microtitre plates as described above. Fungal strains to be tested are grown and harvested in an identical manner to that described above, each organism suspension is then diluted in YAG medium to 2×10^4 cfu/ml for Aspergillus spp and other filamentous fungi and 2×10^3 cfu/ml for yeast. 80 μl of an organism suspension was added to each well of the plate containing drug dilutions. This produced MIC plates with a drug range 50-0.05 mg/L and organism inocula of 1-2×10^4 cfu/ml for Aspergillus spp and other filamentous fungi and 1-2×10^3 cfu/ml for yeasts. All plates were incubated for 24 hrs at 35° C. Growth was assessed by monitoring the optical density at 485 nm for each well. The MIC of a compound is the lowest drug concentration that inhibits growth of an organism by >70% compared with a drug free control. MICs are recorded as mg/L. In cases where the MIC of an organism is […]0.05 mg/L the MIC is repeated using a concentration range of 0.5-0.0005 mg/L. MIC tests in YAG medium have more clear-cut endpoints and have slightly lower MICS than those performed in RPMI medium.
(§6) The following organisms were tested: Aspergillus fumigatus AF293 and Aspergillus fumigatus AF210, Aspergillus niger, Aspergillus terreus, Aspergillus favus, Candida albicans, Candida krusei, Candida tropicalis, Candida glabrata, Candida parapsilosis, Trichophyton rubrum, Trichophyton mentagrophytes, Scedosporium prolificans, Scedosporium apiospermum, Absidia corymbifera, Fusarium solani.

[2] = tested on: Aspergillus fumigatus AF293; experiment: MIC, YAG medium, Aspergillus fumigatus AF293; details: YAG medium; for MIC: Aspergillus fumigatus, AF293, read-out: MIC A Fum. 293
Experimental: as §1, §2, §3, §4, §5, §6

[3] = tested on: Aspergillus flavus; experiment: MIC, YAG medium, Aspergillus flavus; details: YAG medium; for MIC: Aspergillus flavus, read-out: MIC A Flavus 01
Experimental: as §1, §2, §3, §4, §5, §6

[4] = tested on: Aspergillus terreus; experiment: MIC, YAG medium, Aspergillus terreus; details: YAG medium; for MIC: Aspergillus terreus, read-out: MIC A Terreus 4
Experimental: as §1, §2, §3, §4, §5, §6

[5] = tested on: Aspergillus niger; experiment: MIC, YAG medium, Aspergillus niger; details: YAG medium; for MIC: Aspergillus niger, read-out: MIC A Niger 1
Experimental: as §1, §2, §3, §4, §5, §6

| Compound | MIC A Fum. 210 [1] [mg/L] | MIC A Fum. 293 [2] [mg/L] | MIC A Flavus 01 [3] [mg/L] | MIC A Terreus 4 [4] [mg/L] | MIC A Niger 1 [5] [mg/L] | MIC [1] [µg/mL] | MIC [2] [µg/mL] | MIC [3] [µg/mL] | MIC [4] [µg/mL] | MIC [5] [µg/mL] |
| --- | --- | --- | --- | --- | --- | --- | --- | --- | --- | --- |
| CON=C(C(=O)Nc1ccc(OC)cc1)c1c(-c2ccccc2)cc2ccccn12 (mixture of isomers) [Example 298, 2-[(E/Z)-Methoxyimino]-N-(4-methoxy-phenyl)-2-(2-phenyl-indolizin-3-yl)-acetamide] | 0.8 | 0.8 | 0.1 | 0.2 | 0.2 |  |  |  |  |  |
| COC(=O)c1ccccc1NC(=O)C(=O)c1c(-c2ccccc2)cc2ccccn12 [Example 142, 2-[2-Oxo-2-(2-phenyl-indolizin-3-yl)-acetylamino]-benzoic acid methyl ester] |  |  |  |  |  | > 50 | > 50 | > 50 | > 50 | 0.8 (≈ 2.01 µM) |
| O=C(Nc1cccnc1)C(=O)c1c(-c2ccccc2)cc2ccccn12 [Example 152, 2-Oxo-2-(2-phenyl-indolizin-3-yl)-N-pyridin-3-yl-acetamide] |  |  |  |  |  | 25 (≈ 73.2 µM) | 12.5 (≈ 36.6 µM) | 1.6 (≈ 4.69 µM) | 0.8 (≈ 2.34 µM) | 0.4 (≈ 1.17 µM) |
| CNC(=O)c1ccc(NC(=O)C(=O)c2c(-c3ccccc3)cc3ccccn23)cc1 [Example 153, N-Methyl-4-[2-oxo-2-(2-phenyl-indolizin-3-yl)-acetylamino]-benzamide] |  |  |  |  |  | 25 (≈ 62.9 µM) | > 50 | 3.1 (≈ 7.8 µM) | > 50 | 0.8 (≈ 2.01 µM) |
| COc1ccc(NC(=O)C(=O)c2c(-c3ccc(F)cc3)cc3ccccn23)cn1 [Example 157, 2-[2-(4-Fluoro-phenyl)-indolizin-3-yl]-N-(6-methoxy-pyridin-3-yl)-2-oxo-acetamide] |  |  |  |  |  | 1.6 (≈ 4.11 µM) | 6.25 (≈ 16.1 µM) | 0.1 (≈ 0.257 µM) | 0.2 (≈ 0.514 µM) | 0.1 (≈ 0.257 µM) |
| O=C(Nc1ccc(C(=O)O)cc1)C(=O)c1c(-c2ccccc2)cc2ccccn12 [Example 159, 4-[2-Oxo-2-(2-phenyl-indolizin-3-yl)-acetylamino]-benzoic acid] |  |  |  |  |  | > 50 | > 50 | > 50 | 50 (≈ 130 µM) | 1.6 (≈ 4.16 µM) |
| CN(C)C(=O)c1ccc(NC(=O)C(=O)c2c(-c3ccccc3)cc3ccccn23)cc1 [Example 160, N,N-Dimethyl-4-[2-oxo-2-(2-phenyl-indolizin-3-yl)-acetylamino]-benzamide] |  |  |  |  |  | 50 (≈ 122 µM) | 50 (≈ 122 µM) | 3.1 (≈ 7.53 µM) | 50 (≈ 122 µM) | 0.4 (≈ 0.972 µM) |
| COc1ccc(NC(=O)C(=O)c2c(-c3ccccn3)cc3ccccn23)cc1 [Example 163, N-(4-Methoxy-phenyl)-2-oxo-2-(2-pyridin-2-yl-indolizin-3-yl)-acetamide] |  |  |  |  |  | > 50 | > 50 | > 50 | > 50 | 1.6 (≈ 4.31 µM) |
| Cc1ccc(NC(=O)C(=O)c2c(-c3ccco3)cc3ccccn23)cc1 [Example 168, 2-(2-Furan-2-yl-indolizin-3-yl)-2-oxo-N-p-tolyl-acetamide] |  |  |  |  |  | 3.1 (≈ 9 µM) | 1.6 (≈ 4.65 µM) | 0.4 (≈ 1.16 µM) | 1.6 (≈ 4.65 µM) | 0.4 (≈ 1.16 µM) |
| COc1ccc(NC(=O)C(=O)c2c(-c3ccco3)cc3ccccn23)c(OC)c1 [Example 169, N-(2,4-Dimethoxy-phenyl)-2-(2-furan-2-yl-indolizin-3-yl)-2-oxo-acetamide] |  |  |  |  |  | 6.25 (≈ 16 µM) | 3.1 (≈ 7.94 µM) | 0.4 (≈ 1.02 µM) | 3.1 (≈ 7.94 µM) | 0.4 (≈ 1.02 µM) |
| Cc1ccc(NC(=O)C(=O)c2c(-c3ccncc3)cc3ccccn23)cc1 [Example 171, 2-Oxo-2-(2-pyridin-4-yl-indolizin-3-yl)-N-p-tolyl-acetamide] |  |  |  |  |  | 1.6 (≈ 4.5 µM) | 50 (≈ 141 µM) | 0.4 (≈ 1.13 µM) | 0.8 (≈ 2.25 µM) | > 50 |
| COc1ccc(NC(=O)C(=O)c2c(-c3cccnc3)cc3ccccn23)c(OC)c1 [Example 174, N-(2,4-Dimethoxy-phenyl)-2-oxo-2-(2-pyridin-3-yl-indolizin-3-yl)-acetamide] |  |  |  |  |  | 3.1 (≈ 7.72 µM) | 6.25 (≈ 15.6 µM) | 0.1 (≈ 0.249 µM) | 0.2 (≈ 0.498 µM) | 1.6 (≈ 3.99 µM) |
| Cc1ccc(NC(=O)C(=O)c2c(-c3ccccn3)cc3ccccn23)cc1 [Example 175, 2-Oxo-2-(2-pyridin-2-yl-indolizin-3-yl)-N-p-tolyl-acetamide] |  |  |  |  |  | 3.1 (≈ 8.72 µM) | > 50 | > 50 | 3.1 (≈ 8.72 µM) | > 50 |
| COc1ccc(NC(=O)C(=O)c2c(-c3ccccn3)cc3ccccn23)c(OC)c1 [Example 176, N-(2,4-Dimethoxy-phenyl)-2-oxo-2-(2-pyridin-2-yl-indolizin-3-yl)-acetamide] |  |  |  |  |  | > 50 | > 50 | > 50 | > 50 | 3.1 (≈ 7.72 µM) |

Next, values leading:

| MIC A Fum. 210 [1] [mg/L] | MIC A Fum. 293 [2] [mg/L] | MIC A Flavus 01 [3] [mg/L] | MIC A Terreus 4 [4] [mg/L] | MIC A Niger 1 [5] [mg/L] | MIC [1] [µg/mL] | MIC [2] [µg/mL] | MIC [3] [µg/mL] | MIC [4] [µg/mL] | MIC [5] [µg/mL] | Compound |
| --- | --- | --- | --- | --- | --- | --- | --- | --- | --- | --- |
|  |  |  |  |  | 6.25 (≈ 16.8 µM) | 12.5 (≈ 33.7 µM) | 0.1 (≈ 0.269 µM) | 3.1 (≈ 8.35 µM) | 0.1 (≈ 0.269 µM) | COc1ccc(NC(=O)C(=O)c2c(-c3cccnc3)cc3ccccn23)cc1 [Example 147, N-(4-Methoxy-phenyl)-2-oxo-2-(2-pyridin-3-yl-indolizin-3-yl)-acetamide] |
|  |  |  |  |  | 6.25 (≈ 18.3 µM) | 6.25 (≈ 18.3 µM) | 1.6 (≈ 4.69 µM) | 0.4 (≈ 1.17 µM) | 0.4 (≈ 1.17 µM) | O=C(Nc1ccccn1)C(=O)c1c(-c2ccccc2)cc2ccccn12 [Example 151, 2-Oxo-2-(2-phenyl-indolizin-3-yl)-N-pyridin-2-yl-acetamide] |
|  |  |  |  |  | > 50 | > 50 | > 50 | > 50 | 0.4 (≈ 1.17 µM) | O=C(Nc1ccncc1)C(=O)c1c(-c2ccccc2)cc2ccccn12 [Example 158, 2-Oxo-2-(2-phenyl-indolizin-3-yl)-N-pyridin-4-yl-acetamide] |
|  |  |  |  |  | > 50 | > 50 | > 50 | > 50 | 6.25 (≈ 16.3 µM) | NC(=O)c1ccc(NC(=O)C(=O)c2c(-c3ccccc3)cc3ccccn23)cc1 [Example 161, 4-[2-Oxo-2-(2-phenyl-indolizin-3-yl)-acetylamino]-benzamide] |
|  |  |  |  |  | > 50 | > 50 | > 50 | > 50 | 3.1 (≈ 8.35 µM) | COc1ccc(NC(=O)C(=O)c2c(-c3ccncc3)cc3ccccn23)cc1 [Example 162, N-(4-Methoxy-phenyl)-2-oxo-2-(2-pyridin-4-yl-indolizin-3-yl)-acetamide] |
|  |  |  |  |  | > 50 | > 50 | 0.4 (≈ 1.11 µM) | > 50 | 0.4 (≈ 1.11 µM) | COc1ccc(NC(=O)C(=O)c2c(-c3ccco3)cc3ccccn23)cc1 [Example 164, 2-(2-Furan-2-yl-indolizin-3-yl)-N-(4-methoxy-phenyl)-2-oxo-acetamide] |
|  |  |  |  |  | > 50 | > 50 | 3.1 (≈ 8.58 µM) | > 50 | 3.1 (≈ 8.58 µM) | COc1ccc(NC(=O)C(=O)c2c(-c3ccco3)cc3ccccn23)cn1 [Example 170, 2-(2-Furan-2-yl-indolizin-3-yl)-N-(6-methoxy-pyridin-3-yl)-2-oxo-acetamide] |
|  |  |  |  |  | 25 (≈ 62.3 µM) | 25 (≈ 62.3 µM) | 0.4 (≈ 0.996 µM) | 1.6 (≈ 3.99 µM) | 3.1 (≈ 7.72 µM) | COc1ccc(NC(=O)C(=O)c2c(-c3ccncc3)cc3ccccn23)c(OC)c1 [Example 172, N-(2,4-Dimethoxy-phenyl)-2-oxo-2-(2-pyridin-4-yl-indolizin-3-yl)-acetamide] |
